Literature values, collected in patent publication US20060120971A1, “Agents and methods for administration to the central nervous system” (SIGNUM PHARMACEUTICALS, INC., priority 2004, published 2006).

Target: T1, carnitine palmitoyltransferase-1 (CPT1) (Rattus norvegicus, UniProt P32198)
T1 construct: decrease levels of CPT1 activity and increase the levels of LC-CoAs in the hypothalamus of healthy rats; host or cells: endogenous enzyme in brain/hypothalamus of conscious Sprague-Dawley rats (in vivo, ICV infusion)
T1 sequence (P32198 1-773): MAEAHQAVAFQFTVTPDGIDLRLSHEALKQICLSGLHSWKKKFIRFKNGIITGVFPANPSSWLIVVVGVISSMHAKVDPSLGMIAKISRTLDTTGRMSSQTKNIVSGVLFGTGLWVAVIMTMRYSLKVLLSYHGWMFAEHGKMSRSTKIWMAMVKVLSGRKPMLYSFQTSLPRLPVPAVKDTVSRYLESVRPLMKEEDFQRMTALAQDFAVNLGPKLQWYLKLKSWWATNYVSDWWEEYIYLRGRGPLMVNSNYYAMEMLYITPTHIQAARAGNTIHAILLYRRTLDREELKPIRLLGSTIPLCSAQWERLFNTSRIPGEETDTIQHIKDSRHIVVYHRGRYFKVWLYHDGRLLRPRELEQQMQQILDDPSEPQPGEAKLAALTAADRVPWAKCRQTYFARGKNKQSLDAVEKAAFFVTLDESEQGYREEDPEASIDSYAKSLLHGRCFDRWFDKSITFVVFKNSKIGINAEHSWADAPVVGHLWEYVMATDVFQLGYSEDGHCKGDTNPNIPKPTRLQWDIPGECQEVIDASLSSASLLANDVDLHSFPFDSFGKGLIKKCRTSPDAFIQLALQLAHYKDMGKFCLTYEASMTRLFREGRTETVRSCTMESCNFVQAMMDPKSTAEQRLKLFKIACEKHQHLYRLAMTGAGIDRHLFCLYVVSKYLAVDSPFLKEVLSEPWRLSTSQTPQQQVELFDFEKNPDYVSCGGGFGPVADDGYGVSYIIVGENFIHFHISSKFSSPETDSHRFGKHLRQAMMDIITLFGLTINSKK

[1] = healthy conscious Sprague-Dawley rats, continuous ICV infusion into third cerebral ventricle

- CPT1 activity (brain of healthy rats, ICV infusion): effectively decreasing
- endogenous glucose production [1]: reduced
- food intake [1]: diminished
- hypothalamic concentrations of LC-CoA (hypothalamus of healthy rats, ICV infusion): substantially increasing
SMILES: CCCCCCCCCCCCCCNC(=O)N[C@H](CC(=O)[O-])C[N+](C)(C)C [ST1326, R-4-trimethylammonium-3-(tetradecylcarbamoyl)-aminobutyrate]
